Data as given in patent US10550142B2, “Quercetin-based compound” (AMOREPACIFIC CORPORATION, priority 2016, dated 2020).

Test system: skin
Assay: Cumulative skin irritation test, HRIPT (human repeated insult patch test)
Type: in vivo
Parameters: key to skin reactivity (ICDRG criteria): −: Negative (no reaction); ±: Suspicious or slight erythema, etc.; +: Weak reaction (not accompanied by vesicles), erythema, papules; ++: Severe reaction (accompanied by vesicles), erythema, papules, vesicles; +++: Strong reaction, bullae
Settings: for Number of subjects showing ±, + or ++ reactivity 1st: 1st patch; for Number of subjects showing ±, + or ++ reactivity 2nd: 2nd patch; for Number of subjects showing ±, + or ++ reactivity 3rd: 3rd patch; for Number of subjects showing ±, + or ++ reactivity 4th: 4th patch; for Number of subjects showing ±, + or ++ reactivity 5th: 5th patch; for Number of subjects showing ±, + or ++ reactivity 6th: 6th patch; for Number of subjects showing ±, + or ++ reactivity 7th: 7th patch; for Number of subjects showing ±, + or ++ reactivity 8th: 8th patch; for Number of subjects showing ±, + or ++ reactivity 9th: 9th patch; for Average reactivity: less than 3 = safe
Procedure: HRIPT (human repeated insult patch test) was performed to evaluate the cumulative skin irritation of quercetin 3-O-[3-O″-(E)-p-coumaroyl][β-D-glucopyranosyl-(1→3)-O-α-L-rhamnopyranosyl-(1→6)-O-β-D-glucopyranoside] and quercetin 3-O-[3-O″-(E)-p-coumaroyl][α-L-rhamnopyranosyl-(1→6)-O-β-D-glucopyranoside] and determine the range of concentration applicable to the skin. Specifically, 15 healthy adult subjects were randomly selected, and 20 μl of a test composition (composition for the skin including an emulsifier, a stabilizer, purified water, etc. in addition to each of the above compounds) containing 0.5% by weight, 1% by weight or 3% by weight of each of the compounds was dropped into each chamber (IQ chamber, Epitest Ltd, Finland) The patch was applied to the upper right side of the back of the subject, and after 24 hours from the application, it was replaced with a new patch. In this way, a total of 9 patches were applied, 3 times a week for 3 weeks. The skin reaction was checked before and after application of each patch. The skin reaction was checked until after 48 hours from the removal of the final patch, and the average reactivity was calculated. The skin reaction was evaluated according to the criteria of the International Contact Dermatitis Research Group (ICDRG). In the above table, “novel substance 31” denotes quercetin 3-O-[3-O″-(E)-p-coumaroyl][β-D-glucopyranosyl-(1→3)-O-α-L-rhamnopyranosyl-(1→6)-O-β-D-glucopyranoside], and “novel substance 32” denotes quercetin 3-O-[3-O″-(E)-p-coumaroyl][α-L-rhamnopyranosyl-(1→6)-O-β-D-glucopyranoside.

[1] = 0.5% by weight, line 1 of 3 (±)
[2] = 0.5% by weight, line 2 of 3 (+)
[3] = 0.5% by weight, line 3 of 3 (++)

Structure (SMILES): CC1OC(OCC2OC(Oc3c(-c4ccc(O)c(O)c4)oc4cc(O)cc(O)c4c3=O)C(O)C(OC(=O)/C=C/c3ccc(O)cc3)C2O)C(O)C(OC2OC(CO)C(O)C(O)C2O)C1O [Novel substance 31, quercetin 3-O-[3-O″-(E)-p-coumaroyl][β-D-glucopyranosyl-(1→3)-O-α-L-rhamnopyranosyl-(1→6)-O-β-D-glucopyranoside]]
- Number of subjects showing ±, + or ++ reactivity 1st [1]: 0 number of persons
- Number of subjects showing ±, + or ++ reactivity 1st [2]: 0 number of persons
- Number of subjects showing ±, + or ++ reactivity 1st [3]: 0 number of persons
- Number of subjects showing ±, + or ++ reactivity 2nd [1]: 0 number of persons
- Number of subjects showing ±, + or ++ reactivity 2nd [2]: 0 number of persons
- Number of subjects showing ±, + or ++ reactivity 2nd [3]: 0 number of persons
- Number of subjects showing ±, + or ++ reactivity 3rd [1]: 0 number of persons
- Number of subjects showing ±, + or ++ reactivity 3rd [2]: 0 number of persons
- Number of subjects showing ±, + or ++ reactivity 3rd [3]: 0 number of persons
- Number of subjects showing ±, + or ++ reactivity 4th [1]: 0 number of persons
- Number of subjects showing ±, + or ++ reactivity 4th [2]: 0 number of persons
- Number of subjects showing ±, + or ++ reactivity 4th [3]: 0 number of persons
- Number of subjects showing ±, + or ++ reactivity 5th [1]: 0 number of persons
- Number of subjects showing ±, + or ++ reactivity 5th [2]: 0 number of persons
- Number of subjects showing ±, + or ++ reactivity 5th [3]: 0 number of persons
- Number of subjects showing ±, + or ++ reactivity 6th [1]: 0 number of persons
- Number of subjects showing ±, + or ++ reactivity 6th [2]: 0 number of persons
- Number of subjects showing ±, + or ++ reactivity 6th [3]: 0 number of persons
- Number of subjects showing ±, + or ++ reactivity 7th [1]: 0 number of persons
- Number of subjects showing ±, + or ++ reactivity 7th [2]: 0 number of persons
- Number of subjects showing ±, + or ++ reactivity 7th [3]: 0 number of persons
- Number of subjects showing ±, + or ++ reactivity 8th [1]: 0 number of persons
- Number of subjects showing ±, + or ++ reactivity 8th [2]: 0 number of persons
- Number of subjects showing ±, + or ++ reactivity 8th [3]: 0 number of persons
- Number of subjects showing ±, + or ++ reactivity 9th [1]: 0 number of persons
- Number of subjects showing ±, + or ++ reactivity 9th [2]: 0 number of persons
- Number of subjects showing ±, + or ++ reactivity 9th [3]: 0 number of persons
- Average reactivity (0.5% by weight): 0
- Number of subjects showing ±, + or ++ reactivity 1st (1% by weight, line 1 of 3 (±)): 0 number of persons
- Number of subjects showing ±, + or ++ reactivity 1st (1% by weight, line 2 of 3 (+)): 0 number of persons
- Number of subjects showing ±, + or ++ reactivity 1st (1% by weight, line 3 of 3 (++)): 0 number of persons
- Number of subjects showing ±, + or ++ reactivity 2nd (1% by weight, line 1 of 3 (±)): 0 number of persons
- Number of subjects showing ±, + or ++ reactivity 2nd (1% by weight, line 2 of 3 (+)): 0 number of persons
- Number of subjects showing ±, + or ++ reactivity 2nd (1% by weight, line 3 of 3 (++)): 0 number of persons
- Number of subjects showing ±, + or ++ reactivity 3rd (1% by weight, line 1 of 3 (±)): 0 number of persons
- Number of subjects showing ±, + or ++ reactivity 3rd (1% by weight, line 2 of 3 (+)): 0 number of persons
- Number of subjects showing ±, + or ++ reactivity 3rd (1% by weight, line 3 of 3 (++)): 0 number of persons
- Number of subjects showing ±, + or ++ reactivity 4th (1% by weight, line 1 of 3 (±)): 0 number of persons
- Number of subjects showing ±, + or ++ reactivity 4th (1% by weight, line 2 of 3 (+)): 0 number of persons
- Number of subjects showing ±, + or ++ reactivity 4th (1% by weight, line 3 of 3 (++)): 0 number of persons
- Number of subjects showing ±, + or ++ reactivity 5th (1% by weight, line 1 of 3 (±)): 0 number of persons
- Number of subjects showing ±, + or ++ reactivity 5th (1% by weight, line 2 of 3 (+)): 0 number of persons
- Number of subjects showing ±, + or ++ reactivity 5th (1% by weight, line 3 of 3 (++)): 0 number of persons
- Number of subjects showing ±, + or ++ reactivity 6th (1% by weight, line 1 of 3 (±)): 0 number of persons
- Number of subjects showing ±, + or ++ reactivity 6th (1% by weight, line 2 of 3 (+)): 0 number of persons
- Number of subjects showing ±, + or ++ reactivity 6th (1% by weight, line 3 of 3 (++)): 0 number of persons
- Number of subjects showing ±, + or ++ reactivity 7th (1% by weight, line 1 of 3 (±)): 0 number of persons
- Number of subjects showing ±, + or ++ reactivity 7th (1% by weight, line 2 of 3 (+)): 0 number of persons
- Number of subjects showing ±, + or ++ reactivity 7th (1% by weight, line 3 of 3 (++)): 0 number of persons
- Number of subjects showing ±, + or ++ reactivity 8th (1% by weight, line 1 of 3 (±)): 0 number of persons
- Number of subjects showing ±, + or ++ reactivity 8th (1% by weight, line 2 of 3 (+)): 0 number of persons
- Number of subjects showing ±, + or ++ reactivity 8th (1% by weight, line 3 of 3 (++)): 0 number of persons
- Number of subjects showing ±, + or ++ reactivity 9th (1% by weight, line 1 of 3 (±)): 0 number of persons
- Number of subjects showing ±, + or ++ reactivity 9th (1% by weight, line 2 of 3 (+)): 0 number of persons
- Number of subjects showing ±, + or ++ reactivity 9th (1% by weight, line 3 of 3 (++)): 0 number of persons
- Average reactivity (1% by weight): 0
- Number of subjects showing ±, + or ++ reactivity 1st (3% by weight, line 1 of 3 (±)): 0 number of persons
- Number of subjects showing ±, + or ++ reactivity 1st (3% by weight, line 2 of 3 (+)): 0 number of persons
- Number of subjects showing ±, + or ++ reactivity 1st (3% by weight, line 3 of 3 (++)): 0 number of persons
- Number of subjects showing ±, + or ++ reactivity 2nd (3% by weight, line 1 of 3 (±)): 0 number of persons
- Number of subjects showing ±, + or ++ reactivity 2nd (3% by weight, line 2 of 3 (+)): 0 number of persons
- Number of subjects showing ±, + or ++ reactivity 2nd (3% by weight, line 3 of 3 (++)): 0 number of persons
- Number of subjects showing ±, + or ++ reactivity 3rd (3% by weight, line 1 of 3 (±)): 0 number of persons
- Number of subjects showing ±, + or ++ reactivity 3rd (3% by weight, line 2 of 3 (+)): 0 number of persons
- Number of subjects showing ±, + or ++ reactivity 3rd (3% by weight, line 3 of 3 (++)): 0 number of persons
- Number of subjects showing ±, + or ++ reactivity 4th (3% by weight, line 1 of 3 (±)): 0 number of persons
- Number of subjects showing ±, + or ++ reactivity 4th (3% by weight, line 2 of 3 (+)): 0 number of persons
- Number of subjects showing ±, + or ++ reactivity 4th (3% by weight, line 3 of 3 (++)): 0 number of persons
- Number of subjects showing ±, + or ++ reactivity 5th (3% by weight, line 1 of 3 (±)): 0 number of persons
- Number of subjects showing ±, + or ++ reactivity 5th (3% by weight, line 2 of 3 (+)): 0 number of persons
- Number of subjects showing ±, + or ++ reactivity 5th (3% by weight, line 3 of 3 (++)): 0 number of persons
- Number of subjects showing ±, + or ++ reactivity 6th (3% by weight, line 1 of 3 (±)): 0 number of persons
- Number of subjects showing ±, + or ++ reactivity 6th (3% by weight, line 2 of 3 (+)): 0 number of persons
- Number of subjects showing ±, + or ++ reactivity 6th (3% by weight, line 3 of 3 (++)): 0 number of persons
- Number of subjects showing ±, + or ++ reactivity 7th (3% by weight, line 1 of 3 (±)): 0 number of persons
- Number of subjects showing ±, + or ++ reactivity 7th (3% by weight, line 2 of 3 (+)): 0 number of persons
- Number of subjects showing ±, + or ++ reactivity 7th (3% by weight, line 3 of 3 (++)): 0 number of persons
- Number of subjects showing ±, + or ++ reactivity 8th (3% by weight, line 1 of 3 (±)): 0 number of persons
- Number of subjects showing ±, + or ++ reactivity 8th (3% by weight, line 2 of 3 (+)): 0 number of persons
- Number of subjects showing ±, + or ++ reactivity 8th (3% by weight, line 3 of 3 (++)): 0 number of persons
- Number of subjects showing ±, + or ++ reactivity 9th (3% by weight, line 1 of 3 (±)): 0 number of persons
- Number of subjects showing ±, + or ++ reactivity 9th (3% by weight, line 2 of 3 (+)): 0 number of persons
- Number of subjects showing ±, + or ++ reactivity 9th (3% by weight, line 3 of 3 (++)): 0 number of persons
- Average reactivity (3% by weight): 0
- skin reactivity (ICDRG criteria) (within the content range 0.5, 1, 3% by weight, 9 patches, 15 subjects): −
